Patent US12534748B2, “Engineered beta-subunit of tryptophan synthase for production of non-canonical amino acids” (California Institute of Technology, priority 2015, dated 2026)

Molecular target: T1, PfTrpB^2B9 (Pyrococcus furiosus, UniProt Q8U093, E17G/F274S/F95L/I16V/I68V/T292S/T321A/V384A)
T1 construct: made in house; host or cells: E. coli BL21 E. cloni Express
Assay: TTN of β-substitution reaction with L-Thr with different nucleophiles
Type: biochemical
Details: for TTN: LC-MS
Description: Total Turnover Number (TTN) determination. Measurements were made using HPLC and LC-MS instruments. The amount of Trp formed was measured at 280 nm using a standard curve with trichlorobenzene as internal standard. […] This method is insensitive to loading volume and results agreed with measurements using a standard curve. […] This same technique was used to determine the TTN of the PfTrpB^2B9 reaction with different nucleophiles. […] Reactions were set up in triplicate using a total volume of 150 μL with 25 mM nucleophile and 250 mM L-Thr in 200 mM potassium phosphate pH 8.0 in borosilicate glass vials, as plastics can absorb indoles at high temperatures. Before addition of enzyme, all reagents were transferred into a Coy anaerobic chamber with <1 ppm O2 to rapidly exchange the atmosphere in the headspace of the vials to 95/5% N2/H2, which limits competing non-catalytic oxidation of indoles. Enzyme was added in the anaerobic environment with varied catalyst loading to ensure a robust product signal in subsequent analysis. Reaction vessels were capped before being removed from the anaerobic chamber and incubated in a 75° C. water bath for 24 hours. Reactions were quenched the next day by addition of 1 volume (150 μL) of 100% ACN, mixing, and allowing to rest at room temperature for 10 min. Quenched solutions were then diluted 5-fold with 40% ACN in water and analyzed via LC-MS. In all cases, auxiliary peaks that would indicate non-catalytic degradation of substrate were present at only low levels, contributing to <1% of the total integration signal for a given wavelength. For 7-azaindole, a second peak with m/z=220 was observed that was also found in larger scale reactions and whose properties are consistent with an N-alkylated product.
With these reaction conditions in hand, a characterization of the substrate scope of the reaction with Thr was performed. A small panel of indole-like nucleophiles were screened for reaction with PfTrpB^0B2 and Ser, and a significant boosts in activity was observed. This was expanded on this panel of nucleophiles and tests for activity with PfTrpB^2B9 using an excess of Thr was performed. Reactions were run to intermediate yield to determine the TTN with a given nucleophile and the identity of the products was established with a separate preparative-scale reaction using 100 mM nucleophile, 1.0 M Thr, and 0.02-0.25 mol % PfTrpB^2B9 catalyst. […] To probe the role of electronic effects on the C—C bond forming step, activity was tested with 4-fluoro and 5-fluoroindole, which are more closely isosteric with indole but have decreased electron density in the π-system. Product formation with each substrate and 3.4-fold decreased TTN with the 4-fluoro substrate was observed, which is more electron withdrawing at C-3 than the 5-fluoro substituent. The increased steric constraints of the activity site were again clear, as no activity with the 5-chloro-, 5-bromo, and 6-hydroxyindoles, which undergo reaction with Ser, was observed. […] This regioselectivity is well known with the indazole, which we found reacts exclusively to form the N-alkylated product. […] Inclusion of DTT reduced this side reaction.

[1] = 25 mM nucleophile, 250 mM L-Thr, 24 hour reaction at 75° C.

T1 sequence (Q8U093 other isoform, or with tags, fused parts or gaps I16V/E17G/I68V/F95L/F274S/T292S/T321A/V384A): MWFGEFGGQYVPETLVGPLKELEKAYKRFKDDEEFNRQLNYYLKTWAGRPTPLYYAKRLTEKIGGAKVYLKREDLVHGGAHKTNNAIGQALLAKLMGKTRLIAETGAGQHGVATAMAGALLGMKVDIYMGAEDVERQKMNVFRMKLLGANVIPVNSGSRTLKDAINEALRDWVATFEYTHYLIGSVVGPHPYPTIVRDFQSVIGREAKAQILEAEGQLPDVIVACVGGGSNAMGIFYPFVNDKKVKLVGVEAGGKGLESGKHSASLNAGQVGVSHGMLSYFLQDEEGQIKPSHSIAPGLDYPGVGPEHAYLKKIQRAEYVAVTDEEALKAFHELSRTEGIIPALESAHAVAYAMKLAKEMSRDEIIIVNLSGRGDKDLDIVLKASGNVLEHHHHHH

Row | SMILES | TTN [1] | reactivity of nucleophile with PfTrpB^2B9 and excess Thr | further results
1 | Fc1cccc2[nH]ccc12 [4-Fluoroindole] | 378 ± 8 | – | decrease of TTN (4-fluoro versus 5-fluoro substrate): 3.4 fold
2 | Cc1cc2ccccc2[nH]1 [2-Methylindole] | 6400 ± 1400 | Good reactivity | –
3 | c1cnc2[nH]ccc2c1 [7-Azaindole] | – | – | TTN, C-alkylation [1]: C-alkylation-220 ± 40; TTN, N-alkylation [1]: N-alkylation-32 ± 3
4 | Cc1ccc2cc[nH]c2c1 [6-Methylindole] | 1100 ± 100 | Good reactivity | –
5 | Fc1ccc2[nH]ccc2c1 [5-Fluoroindole] | 1300 ± 280 | – | –
6 | Sc1ccccc1 [thiophenol] | – | low turnover | –
7 | c1ccc2[nH]ccc2c1 [Indole] | 8200 ± 1600 | – | –
8 | c1ccc2c(c1)CCN2 [indoline] | – | no product formation | –
9 | SCc1ccccc1 [benzyl mercaptan] | – | low turnover | –
10 | c1ccc2[nH]ncc2c1 [Indazole] | 500 ± 40 | – | –
